Data reported in patent US6447786B1, “Blocking expression of virulence factors in S. aureus” (New York University, priority 1994, dated 2002).
No end group written: not given here.

Key:
Format in all cases: cell-based
[1] = system: RNAIII transcription of various S. aureus strains
[2] = system: RNAIII transcription of S. aureus RN8463
[3] = system: agr transcription of S. aureus RN6390B
[4] = system: RNAIII transcription of S. aureus RN6607

| Substance | S. aureus strains tested in which the agr response is inhibited [1] | Effect of purified peptide on RNAIII transcription [2] | Effect of purified peptide on RNAIII transcription [3] | Effect of purified peptide on RNAIII transcription [4] |
| --- | --- | --- | --- | --- |
| DICNAYF [S. lugdunensis pheromone] | 5 of 6 | – | – | – |
| GVNACSSLF [peptide from RN6607, peptide purified from supernatant of strain with cloned agrBD genes of RN6607] | – | inhibitor effect | inhibitor effect | activator effect |
| YINCDFLL [peptide from RN8463, peptide purified from supernatant of strain with cloned agrBD genes of RN8463] | – | activator effect | inhibitor effect | inhibitor effect |
| YSTCDFIM [activator peptide] | – | inhibitor effect | activator effect | inhibitor effect |
